“Also recorded” adds a separate entry of the source. Like-named read-outs stand apart in the source and are kept apart here. Marks after values point to notes of the source that are not given here.
Experiments:
[1] = tested on: human coronary artery smooth muscle cells; assay: Proliferation of human coronary artery smooth muscle cells; format: cell-based; conditions: for number of cells after culturing for three days: Smooth muscle cells
Protocol: (§1) Human umbilical vein endothelial cells (HUBEC) (1×10^5/cm^2) were inoculated into a medium containing MCDB-104, 10% FBS, ECGF (100 ng/mL), EGF (10 ng/mL), and heparin (100 ng/mL), and phenolsulfonphthalein or bromosulfophthalein was added to the medium, followed by culturing for three days. Thereafter, the resultant cells were counted, and the number of the cells was compared with that in the case where no drug was added to the medium. In a manner similar to that described above, human coronary artery smooth muscle cells (1×10^5/cm^2) were cultured in a medium containing MCDB-104, 10% FBS, and EGF (10 ng/mL) for three days, and the resultant cells were counted.

[2] = tested on: Human umbilical vein endothelial cells (HUBEC); assay: Proliferation of human vascular endothelial cells; format: cell-based; conditions: for number of cells after culturing for three days: Endothelial cells
Protocol: as §1

[3] = tested on: human coronary artery smooth muscle cells; conditions: International Publication WO 01/93871; cited from earlier work
[4] = International Publication WO 01/93871; cited from earlier work
[5] = tested on: thrombus in the right common carotid artery; assay: Arterial thrombosis, carotid intima damaged by Dotter balloon catheter; format: in vivo, dogs; conditions: 10 mg/kg intravenously; for Average thrombus weight: wet weight thirty minutes after intima damage
Protocol: Anesthetized dogs were employed for the test. Phenolsulfonphthalein or bromosulfophthalein (10 mg/kg, which is 100 times the amount clinically used for renal function testing) was intravenously administered to each of the animals, and the intima of the right common carotid artery was damaged by means of a Dotter balloon catheter. Thirty minutes later, the common carotid artery was extirpated, and the wet weight of thrombus present in the carotid artery was measured. The thus-measured wet weight was compared with that in the case of the control group.

[6] = tested on: β-actin-positive stem cells at the talc-administered site; assay: Inflammatory stenosis caused by talc at the coronary artery adventitia: stem cell density; format: in vivo, beagle dogs; conditions: for Number of stem cells (250 × 250 μm^2): one month
Protocol: (§2) Anesthetized beagle dogs were employed for the test. While each of the animals was ventilated with air, thoracotomy was performed at the left fifth intercostal space, to thereby expose the heart. Subsequently, talc powder was administered to the vicinity of the adventitia at an intermediate portion of the anterior descending branch of the left coronary artery, which caused inflammation. Subsequently, the thoracotomy site was closed, and phenolsulfonphthalein was injected under conditions similar to those of the test described above in (A) by use of a perforated balloon equipped with an injection syringe containing the drug. After recovery from anesthesia, the animal was bred for one month, and then subjected to coronary angiography. Thereafter, the heart was extirpated from the animal, and then subjected to formalin fixation. A microscopic sample of the talc-administered portion was prepared, and the sample was subjected to β-actin staining, followed by determination of the density of β-actin-positive cells (i.e., stem cells).

[7] = tested on: β-actin-positive stem cells in the coronary artery wall; assay: Prevention of stem cell invasion associated with coronary angioplasty, local administration by pored balloon catheter: stem cell count; format: in vivo, beagle dogs; conditions: for stem cell density compared with the non-administration group: at all the membranes
Excerpt: (§3) Nembutal-anesthetized beagle dogs were employed for the test. Each of the animals was endotracheally intubated, and ventilated with air. Subsequently, an 8-French sheath was inserted into the right common carotid artery. An 8-French guide catheter was inserted through the sheath, followed by coronary angiography. Subsequently, a clinically employed balloon catheter for coronary angioplasty (outer diameter: 3 mm, length: 20 mm) was inserted, and then the balloon was expanded at 9 atm, to thereby dilate a distal to intermediate portion of the anterior descending branch of the coronary artery. Through this procedure, the blood vessel wall was damaged. Subsequently, the aforementioned perforated balloon catheter equipped with an injection syringe containing 5% phenolsulfonphthalein (0.5 mL) or 5% bromosulfophthalein (0.5 mL) was guided by a guide wire and inserted into the above-dilated portion, and the phthalein compound (drug) was injected into the blood vessel wall at 3 atm. After completion of injection of the drug, the catheter was removed, and then the cervical portion through which the catheter had been inserted was sutured, followed by administration of an antibiotic. After recovery from anesthesia, the animal was cared for one week to one month, and was again subjected to coronary angiography. One week to one month later, the animal was anesthetized to stop cardiac beat and, the heart was removed from the animal, and then subjected to formalin fixation, followed by preparation of a microscopic sample of the above-dilated portion. Subsequently, the thus-prepared sample was subjected to azan staining and various immunostainings.
(§4) In connection with this finding, in the above-immunostained sample, stem cells per unit area (250×250 um^2) were counted at the highest-cell-density site of the intima, media, or adventitia. Comparison (in terms of the number of stem cells) was performed between drug administration groups and a non-administration group (control group) in which merely saline (0.5 mL) was injected into a portion of the coronary artery dilated with a balloon, and P<0.05 (by Student t test) was regarded as a significant difference.

[8] = tested on: stenosis at the talc-administered site; assay: Inflammatory stenosis caused by talc at the coronary artery adventitia: degree of stenosis; format: in vivo, beagle dogs
Protocol: as §2

[9] = tested on: dendritic cells in the coronary artery wall; assay: Prevention of cell invasion associated with coronary angioplasty, local administration: dendritic cell count (CD40 immunostaining); format: in vivo, beagle dogs; conditions: for Number of dendritic cells (250 × 250 μm^2): 5% drug 0.5 mL injected locally after balloon dilation; for invasion of dendritic cells: CD40 antibody immunostaining
Excerpt: as §3, §4
Dendritic cells, which are inflammatory cells, were subjected to immunostaining with a CD40 antibody.

[10] = tested on: β-actin-positive vascular stem cells in coronary artery; assay: Insertion of drug-eluting stent into coronary artery: stem cell density; format: in vivo, beagle dogs; conditions: two-layer-coated drug-eluting stent (inner PLGA 7510, outer PLA 0010), one month
Excerpt: (§5) Nembutal-anesthetized beagle dogs were employed for the test. While each of the animals was ventilated with air, an 8-French guide catheter was inserted through the right common carotid artery, followed by left coronary angiography. Subsequently, a drug-eluting stent (inner layer: PLGA 7510 containing 50% phenolsulfonphthalein, outer layer: PLA 0010 containing 50% phenolsulfonphthalein) was inserted into the left circumflex branch, and then expanded at 9 atm, followed by placement of the stent. After recovery from anesthesia, the animal was bred for one month, and then was again subjected to coronary angiography. The degree of stenosis was measured at the most stenotic site of the stent-inserted portion, and the thus-measured stenosis degree was compared with that in the case of a non-eluting stent group (i.e., a group in which a stent that is not coated with a drug was inserted). Subsequently, the heart was extirpated from the animal, and then subjected to formalin fixation. Thereafter, a microscopic sample of the stent-inserted portion was prepared, followed by staining of vascular smooth muscle β-actin. Stem cells per unit area were counted at the highest-cell-density site of the intima, media, or adventitia of the above-stained sample. Comparison (in terms of stem cell density) was performed between the drug-eluting stent group and the non-eluting stent group (i.e., the group in which a stent that is not coated with a drug was inserted).

coronary artery stenosis [11] = assay: Insertion of drug-eluting stent into coronary artery: degree of stenosis; format: in vivo, beagle dogs; conditions: one month, most stenotic site of stent-inserted portion
Excerpt: as §5, with “Comparison (in terms of stem cell density) was performed between the drug-eluting stent group and the non-eluting stent group (i.e., the group in which a stent that is not coated with a drug was inserted).” left out

coronary artery stenosis [12] = assay: Coronary artery stenosis after balloon angioplasty, local administration (coronary angiography, azan staining); format: in vivo, beagle dogs; conditions: for stenosis as determined through coronary angiography: compared with non-administration group; for Stenosis degree (%): coronary angiography, 5% drug 0.5 mL injected locally after balloon dilation
Excerpt: as §3

[13] = Adventitia, 5% drug 0.5 mL injected locally after balloon dilation
[14] = Intima, 5% drug 0.5 mL injected locally into vessel wall after balloon dilation, per unit area at highest-cell-density site
[15] = Media, 5% drug 0.5 mL injected locally after balloon dilation

SMILES	number of cells after culturing for three days ([1]; Concentration (mol) 10^−4)	number of cells after culturing for three days ([1]; Concentration (mol) 10^−5)	number of cells after culturing for three days ([1]; Concentration (mol) 10^−6)	number of cells after culturing for three days ([1]; Concentration (mol) 10^−7)	number of cells after culturing for three days ([1]; Concentration (mol) 10^−8)	number of cells after culturing for three days ([2]; Concentration (mol) 10^−4)	number of cells after culturing for three days ([2]; Concentration (mol) 10^−5)	number of cells after culturing for three days ([2]; Concentration (mol) 10^−6)	number of cells after culturing for three days ([2]; Concentration (mol) 10^−7)	number of cells after culturing for three days ([2]; Concentration (mol) 10^−8)	effect of inhibiting thrombus formation (antithrombotic effect) [5]	Average thrombus weight [5]	Number of stem cells [7, 13]	Number of stem cells [7, 14]	Number of stem cells [7, 15]	stem cell density compared with the non-administration group [7]	effect of inhibiting proliferation of vascular smooth muscle cells [1]	effect of inhibiting proliferation of human vascular endothelial cells (HUBEC) [2]	Number of dendritic cells (250 × 250 μm^2) ([9]; Adventitia)	invasion of dendritic cells [9]	further results
Cc1cc(-c2ccc(/N=N/c3ccc4c(S(=O)(=O)O)cc(S(=O)(=O)O)c(N)c4c3O)c(C)c2)ccc1/N=N/c1ccc2c(S(=O)(=O)O)cc(S(=O)(=O)O)c(N)c2c1O [Evans Blue]	0.07***	0.34**	1.00*	3.50*	3.89	0.12**	0.98*	1.54*	3.11*	3.50											effect of inhibiting proliferation of vascular smooth muscle cells [3]: has the effect of inhibiting proliferation of vascular smooth muscle cells; antithrombotic effect [4]: antithrombotic effect
O=S1(=O)OC(c2ccc(O)cc2)(c2ccc(O)cc2)c2ccccc21 [Phenolsulfonphthalein, phenolsulfonphthalein]	3.65	3.88	4.17	4.02	4.08	3.37	3.40	3.35	3.43	3.47	no effect; also recorded: nor antithrombotic effect	195 mg	19.3 ± 6.3* 250×250 um^2	11.0 ± 4.2* 250×250 um^2	10.1 ± 2.8* 250×250 um^2	significantly lower	no effect	no effect	1.0 ± 0.5* 250 × 250 μm^2	inhibited	β-actin-positive cell density compared with the non-administration group [6]: significantly lower; Number of stem cells (250 × 250 μm^2) ([6]; Adventitia): 12.2 ± 3.4* 250 × 250 μm^2; Number of stem cells (250 × 250 μm^2) ([6]; Intima): 2.0 ± 0.8* 250 × 250 μm^2; Number of stem cells (250 × 250 μm^2) ([6]; Media): 2.6 ± 0.7* 250 × 250 μm^2; cell invasion (FIG. 2) ([7]; four weeks after dilation): less observed; cell invasion from the adventitia into the intima (FIG. 1) ([7]; one week after dilation with a balloon, azan staining): virtually no cell invasion is observed; also recorded: not observed; degree of stenosis [8]: significantly lower; Stenosis degree (%) ([8]; one month, coronary angiography): 10.4 ± 2.7 %; Number of dendritic cells (250 × 250 μm^2) ([9]; Intima): 0.2 ± 0.0* 250 × 250 μm^2; Number of dendritic cells (250 × 250 μm^2) ([9]; Media): 0.0 ± 0.0* 250 × 250 μm^2; Number of stem cells (250 × 250 μm^2) ([10]; Adventitia): 16.0 ± 7.1* 250 × 250 μm^2; Number of stem cells (250 × 250 μm^2) ([10]; Intima): 7.1 ± 3.2** 250 × 250 μm^2; Number of stem cells (250 × 250 μm^2) ([10]; Media): 9.0 ± 4.0* 250 × 250 μm^2; Stenosis degree (%) (coronary artery stenosis [11]): 0 ± 0.0 %; stenosis as determined through coronary angiography (coronary artery stenosis [12]): significantly inhibited; Stenosis degree (%) (coronary artery stenosis [12]): 10.1 ± 2.5 %; stenosis due to intimal hyperplasia (FIG. 2) (coronary artery stenosis [12]; four weeks after dilation, azan staining): only slight intimal hyperplasia; also recorded: only slightly observed
O=C1OC(c2ccc(O)c(S(=O)(=O)O)c2)(c2ccc(O)c(S(=O)(=O)O)c2)c2c(Br)c(Br)c(Br)c(Br)c21 [Bromosulfophthalein, bromosulfophthalein]	3.43	3.78	4.19	4.14	4.24	3.44	3.43	3.52	3.59	3.34	no effect; also recorded: nor antithrombotic effect	210 mg	22.0 ± 6.2* 250×250 um^2	14.8 ± 6.1* 250×250 um^2	16.1 ± 4.8 250×250 um^2	significantly lower	no effect	no effect	3.6 ± 0.9* 250 × 250 μm^2	inhibited	Number of dendritic cells (250 × 250 μm^2) ([9]; Intima): 1.6 ± 0.4* 250 × 250 μm^2; Number of dendritic cells (250 × 250 μm^2) ([9]; Media): 1.1 ± 0.1 250 × 250 μm^2; Number of stem cells (250 × 250 μm^2) ([10]; Adventitia): 20.3 ± 9.9* 250 × 250 μm^2; Number of stem cells (250 × 250 μm^2) ([10]; Intima): 8.8 ± 2.6** 250 × 250 μm^2; Number of stem cells (250 × 250 μm^2) ([10]; Media): 8.6 ± 5.0* 250 × 250 μm^2; Stenosis degree (%) (coronary artery stenosis [11]): 11.2 ± 3.1 %; stenosis as determined through coronary angiography (coronary artery stenosis [12]): significantly inhibited; Stenosis degree (%) (coronary artery stenosis [12]): 33.5 ± 10.4 %

— US20060122264A1, “Stem cell invasion inhibitor” (Yasumi Uchida, etal, priority 2003, published 2006)
